Assay results: patent publication US20260356819A1, “OXOISOINDOLINYL-SUBSTITUTED […] DERIVATIVE AND USE THEREOF” (GLUETACS THERAPEUTICS (SHANGHAI) CO., LTD., priority 2023, published 2026)
pIC50: −log10 of the molar value.

Tests used:
[1] = system: MV-4-11 cells; assay: Inhibition of proliferation of myeloid monocytic leukemia cells MV-4-11 (cell viability assay, 96 h); format: cell-based, human; conditions: read-out: inhibitory activity (IC50) against tumor cells proliferation, MV-4-11
Experimental: (§1) The tumor cells used herein were cultured in a cell culture medium listed in table 2 at 37 °C in an incubator with 5% CO2. Prior to experimentation, all cell lines used were correctly identified by STR profiling, and tested negative for Mycoplasma contamination using a Mycoplasma detection kit through routine screenings.
(§2) The IC50 values of the compounds of the present disclosure (including the compounds in Table 1, and Examples 1-498) were determined using the CellTiter-Meiluncell Luminescent Cell Viability Assay Kit from Dalian Meilun Biotech Co., Ltd. The detailed procedure is as follows: Tumor cells were seeded in 96-well cell culture plates at the densities specified in Table 3. On the following day, the test compounds of the present disclosure were subjected to serial dilution. […] Subsequently, 0.5 μL of the test compound dilution was transferred into the 96-well plate containing the cells, with each well containing 100 μL of cell culture medium. […] Into the 96-well plate, the diluted test compounds and corresponding detection reagents were added, resulting in final test compound concentrations of 500 nM and 10 nM, respectively. The experimental procedure is described below using the diluted 2 μM test compound as an example.
(§3) 0.5 μL of the aforementioned diluted compound of the present disclosure (including the compounds in Table 1, and Examples 1-498) was added to the seeded cells in 100 μL of medium, yielding a final test compound concentration of 10 nM. After the cells were treated with the compounds of the present disclosure for a specified period, the cell viability assay reagent was added to the culture medium according to the kit's instructions to determine cell viability. […] All controls were treated using the same procedure as the compounds of the present disclosure. The growth inhibition curves for the compounds of the present disclosure were plotted using Prism GraphPad software, and the IC50 values were calculated therefrom.

[2] = target: T1, WEE1 (Homo sapiens, UniProt P30291+Q96SW2); assay: Western blot degradation of WEE1 in hPBMCs (24 h); format: cell-based; conditions: compounds at 50 nM and 500 nM
T1 construct: The supernatant was aspirated as the extracted total cell protein; endogenous in cells; host or cells: human peripheral blood mononuclear cells (hPBMCs)
T1 sequence (P30291 whole entry): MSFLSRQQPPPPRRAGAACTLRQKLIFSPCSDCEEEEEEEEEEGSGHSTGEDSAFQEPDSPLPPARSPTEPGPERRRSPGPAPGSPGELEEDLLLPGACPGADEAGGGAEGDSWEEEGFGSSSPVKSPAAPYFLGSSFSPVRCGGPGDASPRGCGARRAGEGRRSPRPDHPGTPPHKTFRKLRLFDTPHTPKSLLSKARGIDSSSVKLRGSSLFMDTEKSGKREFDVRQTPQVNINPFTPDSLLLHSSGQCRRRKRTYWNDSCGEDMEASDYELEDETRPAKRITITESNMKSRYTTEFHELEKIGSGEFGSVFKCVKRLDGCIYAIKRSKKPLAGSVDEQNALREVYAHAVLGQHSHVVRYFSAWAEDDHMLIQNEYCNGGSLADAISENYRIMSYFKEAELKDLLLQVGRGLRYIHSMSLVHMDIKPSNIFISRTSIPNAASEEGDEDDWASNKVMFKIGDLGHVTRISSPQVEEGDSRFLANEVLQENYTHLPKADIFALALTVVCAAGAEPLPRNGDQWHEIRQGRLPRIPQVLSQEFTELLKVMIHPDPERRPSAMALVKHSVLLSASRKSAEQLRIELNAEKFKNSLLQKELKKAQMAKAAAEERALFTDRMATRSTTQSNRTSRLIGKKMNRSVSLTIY
T1 sequence (Q96SW2 whole entry): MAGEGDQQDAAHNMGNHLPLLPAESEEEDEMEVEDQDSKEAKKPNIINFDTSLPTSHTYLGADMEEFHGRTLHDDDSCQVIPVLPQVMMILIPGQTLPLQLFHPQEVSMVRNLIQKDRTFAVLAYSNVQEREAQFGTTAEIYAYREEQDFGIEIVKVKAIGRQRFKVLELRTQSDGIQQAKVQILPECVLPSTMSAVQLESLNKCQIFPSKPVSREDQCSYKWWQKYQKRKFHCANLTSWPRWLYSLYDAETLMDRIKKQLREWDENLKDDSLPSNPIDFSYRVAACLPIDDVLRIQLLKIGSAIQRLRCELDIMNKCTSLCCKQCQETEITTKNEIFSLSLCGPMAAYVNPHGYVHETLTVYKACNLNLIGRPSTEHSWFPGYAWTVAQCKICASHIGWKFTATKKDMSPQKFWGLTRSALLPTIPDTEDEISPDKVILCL
T1 sequence (Q16531 whole entry partner): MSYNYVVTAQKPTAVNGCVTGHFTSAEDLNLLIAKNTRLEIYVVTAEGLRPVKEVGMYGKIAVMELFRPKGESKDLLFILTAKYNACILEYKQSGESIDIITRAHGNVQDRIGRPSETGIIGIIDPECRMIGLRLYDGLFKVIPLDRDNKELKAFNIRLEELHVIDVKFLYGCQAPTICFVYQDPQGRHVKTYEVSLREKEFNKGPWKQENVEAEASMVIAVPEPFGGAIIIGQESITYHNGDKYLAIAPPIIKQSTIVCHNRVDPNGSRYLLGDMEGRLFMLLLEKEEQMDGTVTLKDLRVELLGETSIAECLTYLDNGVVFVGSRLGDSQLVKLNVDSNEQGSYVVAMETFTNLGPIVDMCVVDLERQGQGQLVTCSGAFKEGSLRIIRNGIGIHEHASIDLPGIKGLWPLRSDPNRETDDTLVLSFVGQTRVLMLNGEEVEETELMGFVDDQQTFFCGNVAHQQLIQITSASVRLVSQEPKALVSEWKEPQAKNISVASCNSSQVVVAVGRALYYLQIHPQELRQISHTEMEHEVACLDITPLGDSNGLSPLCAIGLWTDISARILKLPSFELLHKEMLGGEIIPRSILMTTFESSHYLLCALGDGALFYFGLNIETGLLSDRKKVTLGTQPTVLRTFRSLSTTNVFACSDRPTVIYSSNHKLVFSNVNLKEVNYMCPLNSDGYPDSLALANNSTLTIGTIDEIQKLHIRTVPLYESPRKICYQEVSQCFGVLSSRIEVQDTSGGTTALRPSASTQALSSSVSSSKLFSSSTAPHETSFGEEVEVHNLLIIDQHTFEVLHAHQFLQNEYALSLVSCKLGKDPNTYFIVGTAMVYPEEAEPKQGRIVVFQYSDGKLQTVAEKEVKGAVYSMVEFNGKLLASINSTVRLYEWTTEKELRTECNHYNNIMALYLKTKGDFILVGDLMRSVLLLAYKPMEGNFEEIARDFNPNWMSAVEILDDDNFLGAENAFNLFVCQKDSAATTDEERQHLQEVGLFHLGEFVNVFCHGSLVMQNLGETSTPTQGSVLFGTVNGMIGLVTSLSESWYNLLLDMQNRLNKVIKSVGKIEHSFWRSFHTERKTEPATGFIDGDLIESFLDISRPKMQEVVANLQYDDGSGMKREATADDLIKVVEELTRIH
How it was run: (§4)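 Thawed human PBMCs, 1×10^6 cells/mL; cpd 50 nM or 500 nM, 24 h; RIPA lysis, BCA, SDS-PAGE, NC transfer, immunoblot. Readout: grayscale/internal control → % remaining; degradation = 1 − remaining.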

[3] = target: T2, IKZF1 (Homo sapiens, UniProt Q13422+Q96SW2); assay: Western blot degradation of IKZF1 in hPBMCs (24 h); format: cell-based; conditions: compounds at 50 nM and 500 nM
T2 construct: The supernatant was aspirated as the extracted total cell protein; endogenous in cells; host or cells: human peripheral blood mononuclear cells (hPBMCs)
T2 sequence (Q13422 whole entry): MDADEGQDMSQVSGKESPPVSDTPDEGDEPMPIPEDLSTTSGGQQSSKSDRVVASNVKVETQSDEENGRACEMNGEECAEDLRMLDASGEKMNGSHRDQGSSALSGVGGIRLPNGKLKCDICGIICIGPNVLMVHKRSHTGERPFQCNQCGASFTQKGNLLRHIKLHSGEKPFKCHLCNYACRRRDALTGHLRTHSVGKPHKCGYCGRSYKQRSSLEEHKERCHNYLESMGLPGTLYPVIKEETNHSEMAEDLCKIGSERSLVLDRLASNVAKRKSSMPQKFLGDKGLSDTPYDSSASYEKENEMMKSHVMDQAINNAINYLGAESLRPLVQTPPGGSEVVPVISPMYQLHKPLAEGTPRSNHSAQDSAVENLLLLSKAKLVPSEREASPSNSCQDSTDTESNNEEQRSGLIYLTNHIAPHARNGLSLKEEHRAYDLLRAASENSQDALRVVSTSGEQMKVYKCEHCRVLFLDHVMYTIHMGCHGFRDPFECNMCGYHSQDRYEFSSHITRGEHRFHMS
T2 sequence (Q96SW2 whole entry): as the sequence (Q96SW2 whole entry) above
T2 sequence (Q16531 whole entry partner): as the sequence (Q16531 whole entry partner) above
How it was run: as §4

[4] = target: T3, IKZF2 (Homo sapiens, UniProt Q96SW2+Q9UKS7); assay: Western blot degradation of IKZF2 in hPBMCs (24 h); format: cell-based; conditions: compounds at 50 nM and 500 nM
T3 construct: The supernatant was aspirated as the extracted total cell protein; endogenous in cells; host or cells: human peripheral blood mononuclear cells (hPBMCs)
How it was run: as §4

[5] = target: T4, IKZF3 (Homo sapiens, UniProt Q96SW2+Q9UKT9); assay: Western blot degradation of IKZF3 in hPBMCs (24 h); format: cell-based; conditions: compounds at 50 nM and 500 nM
T4 construct: The supernatant was aspirated as the extracted total cell protein; endogenous in cells; host or cells: human peripheral blood mononuclear cells (hPBMCs)
T4 sequence (Q9UKT9 whole entry): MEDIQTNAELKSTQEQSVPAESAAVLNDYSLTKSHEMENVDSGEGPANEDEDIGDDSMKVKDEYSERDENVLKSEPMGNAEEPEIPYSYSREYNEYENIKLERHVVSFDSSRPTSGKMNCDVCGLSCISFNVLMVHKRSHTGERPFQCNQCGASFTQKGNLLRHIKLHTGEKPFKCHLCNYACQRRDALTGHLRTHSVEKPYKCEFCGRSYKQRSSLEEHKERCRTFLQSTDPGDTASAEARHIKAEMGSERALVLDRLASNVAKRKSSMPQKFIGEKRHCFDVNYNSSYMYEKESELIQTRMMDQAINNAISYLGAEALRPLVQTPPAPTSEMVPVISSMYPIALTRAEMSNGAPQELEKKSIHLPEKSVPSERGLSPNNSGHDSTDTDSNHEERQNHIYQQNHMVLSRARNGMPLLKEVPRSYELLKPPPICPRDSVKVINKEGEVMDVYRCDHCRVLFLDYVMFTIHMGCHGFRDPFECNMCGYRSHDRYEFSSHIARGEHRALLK
T4 sequence (Q96SW2 whole entry): as the sequence (Q96SW2 whole entry) above
T4 sequence (Q16531 whole entry partner): as the sequence (Q16531 whole entry partner) above
How it was run: as §4

[6] = target: T5, CK1α (Homo sapiens, UniProt P48729+Q96SW2); assay: Western blot degradation of CK1α in hPBMCs (24 h); format: cell-based; conditions: compounds at 50 nM and 500 nM
T5 construct: The supernatant was aspirated as the extracted total cell protein; endogenous in cells; host or cells: human peripheral blood mononuclear cells (hPBMCs)
T5 sequence (P48729 whole entry): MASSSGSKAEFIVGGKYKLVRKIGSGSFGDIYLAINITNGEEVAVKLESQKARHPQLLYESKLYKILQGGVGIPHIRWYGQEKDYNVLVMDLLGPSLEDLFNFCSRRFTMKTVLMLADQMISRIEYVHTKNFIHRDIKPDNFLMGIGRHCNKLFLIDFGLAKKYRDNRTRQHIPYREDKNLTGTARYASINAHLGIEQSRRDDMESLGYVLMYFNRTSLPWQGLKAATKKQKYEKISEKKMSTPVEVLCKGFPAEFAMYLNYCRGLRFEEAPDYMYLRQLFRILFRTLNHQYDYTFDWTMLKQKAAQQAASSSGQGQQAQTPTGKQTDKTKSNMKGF
T5 sequence (Q96SW2 whole entry): as the sequence (Q96SW2 whole entry) above
T5 sequence (Q16531 whole entry partner): as the sequence (Q16531 whole entry partner) above
How it was run: as §4

[7] = target: T6, GSPT1 (Homo sapiens, UniProt P15170+Q96SW2); assay: Western blot degradation of GSPT1 in hPBMCs (24 h); format: cell-based; conditions: compounds at 50 nM and 500 nM
T6 construct: The supernatant was aspirated as the extracted total cell protein; endogenous in cells; host or cells: human peripheral blood mononuclear cells (hPBMCs)
T6 sequence (P15170 whole entry): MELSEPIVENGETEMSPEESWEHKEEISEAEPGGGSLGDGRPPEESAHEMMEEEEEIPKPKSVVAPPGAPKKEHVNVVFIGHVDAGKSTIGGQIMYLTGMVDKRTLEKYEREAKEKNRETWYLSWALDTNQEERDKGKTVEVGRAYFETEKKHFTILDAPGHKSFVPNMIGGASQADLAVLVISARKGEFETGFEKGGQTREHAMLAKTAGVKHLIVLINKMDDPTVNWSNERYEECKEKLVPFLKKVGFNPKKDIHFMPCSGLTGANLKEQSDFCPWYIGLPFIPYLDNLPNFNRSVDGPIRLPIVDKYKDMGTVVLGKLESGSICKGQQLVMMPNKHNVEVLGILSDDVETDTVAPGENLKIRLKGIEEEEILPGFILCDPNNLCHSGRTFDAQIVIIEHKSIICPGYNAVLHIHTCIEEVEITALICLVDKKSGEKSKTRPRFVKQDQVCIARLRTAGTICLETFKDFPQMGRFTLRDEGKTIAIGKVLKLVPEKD
T6 sequence (Q96SW2 whole entry): as the sequence (Q96SW2 whole entry) above
T6 sequence (Q16531 whole entry partner): as the sequence (Q16531 whole entry partner) above
How it was run: as §4

[8] = system: MM.1S cells; assay: Inhibition of proliferation of multiple myeloma cells MM.1S (cell viability assay, 96 h); format: cell-based, human; conditions: read-out: inhibitory activity (IC50) against tumor cells proliferation, MM.1S
[9] = system: Jurkat cells; assay: Inhibition of proliferation of T lymphocytic leukemia cells Jurkat (cell viability assay, 96 h); format: cell-based, human; conditions: read-out: inhibitory activity (IC50) against tumor cells proliferation, Jurkat
Experimental: as §1, §2, §3

Row | SMILES | pIC50 [1] | WEE1 substrate protein remaining % [2] | IKZF1 substrate protein remaining % [3] | IKZF2 substrate protein remaining % [4] | IKZF3 substrate protein remaining % [5] | CK1α substrate protein remaining % [6] | GSPT1 substrate protein remaining % [7] | pIC50 [8] | pIC50 [9]
1 | O=C1CCN(N2Cc3cc(CN4CCN(c5ccccc5)CC4)ccc3C2=O)C(=O)N1 [GT-06696, 1-(1-oxo-5-((4-phenylpiperazin-1-yl)methyl)isoindolin-2-yl)dihydropyrimidine-2,4(1H,3H)-dione] | 6.52 to 7.00 | B (80%< substrate protein remaining % ≤100%) | B (80%< substrate protein remaining % ≤100%) | B (80%< substrate protein remaining % ≤100%) | B (80%< substrate protein remaining % ≤100%) | B (80%< substrate protein remaining % ≤100%) | A (0% ≤ substrate protein remaining % ≤80%) |  | 
2 | O=C1CCN(N2Cc3cc(CN4CCN(c5cccc(Br)c5)CC4)ccc3C2=O)C(=O)N1 [GT-06698, 1-(5-((4-(3-bromophenyl)piperazin-1-yl)methyl)-1-oxoisoindolin-2-yl)dihydropyrimidine-2,4(1H,3H)-dione] | 6.52 to 7.00 | B (80%< substrate protein remaining % ≤100%) | B (80%< substrate protein remaining % ≤100%) | B (80%< substrate protein remaining % ≤100%) | B (80%< substrate protein remaining % ≤100%) | B (80%< substrate protein remaining % ≤100%) | A (0% ≤ substrate protein remaining % ≤80%) |  | 
3 | COc1cccc(N2CCN(Cc3ccc4c(c3)CN(N3CCC(=O)NC3=O)C4=O)CC2)c1 [GT-06699, 1-(5-((4-(3-methoxyphenyl)piperazin-1-yl)methyl)-1-oxoisoindolin-2-yl)dihydropyrimidine-2,4(1H,3H)-dione] | 6.52 to 7.00 | B (80%< substrate protein remaining % ≤100%) | B (80%< substrate protein remaining % ≤100%) | B (80%< substrate protein remaining % ≤100%) | B (80%< substrate protein remaining % ≤100%) | B (80%< substrate protein remaining % ≤100%) | A (0% ≤ substrate protein remaining % ≤80%) |  | 
4 | O=C1CCN(N2Cc3cc(CN4CCN(c5ccc(C(F)(F)F)cc5)CC4)ccc3C2=O)C(=O)N1 [GT-06700, 1-(1-oxo-5-((4-(4-(trifluoromethyl)phenyl)piperazin-1-yl)methyl)isoindolin-2-yl)dihydropyrimidine-2,4(1H,3H)-dione] | 7.00 to 7.30 |  |  |  |  |  |  |  | 
5 | O=C1CCN(N2Cc3cc(CN4CCN(c5ccc(F)cc5)CC4)ccc3C2=O)C(=O)N1 [GT-06702, 1-(5-((4-(4-fluorophenyl)piperazin-1-yl)methyl)-1-oxoisoindolin-2-yl)dihydropyrimidine-2,4(1H,3H)-dione] | 6.00 to 6.30 | B (80%< substrate protein remaining % ≤100%) | B (80%< substrate protein remaining % ≤100%) | B (80%< substrate protein remaining % ≤100%) | B (80%< substrate protein remaining % ≤100%) | A (0% ≤ substrate protein remaining % ≤80%) | A (0% ≤ substrate protein remaining % ≤80%) |  | 
6 | O=C1CCN(N2Cc3cc(CN4CCN(c5ccccc5Cl)CC4)ccc3C2=O)C(=O)N1 [GT-06703, 1-(5-((4-(2-chlorophenyl)piperazin-1-yl)methyl)-1-oxoisoindolin-2-yl)dihydropyrimidine-2,4(1H,3H)-dione] | 6.00 to 6.30 | B (80%< substrate protein remaining % ≤100%) | B (80%< substrate protein remaining % ≤100%) | B (80%< substrate protein remaining % ≤100%) | B (80%< substrate protein remaining % ≤100%) | A (0% ≤ substrate protein remaining % ≤80%) | A (0% ≤ substrate protein remaining % ≤80%) |  | 
7 | O=C1CCN(N2Cc3cc(CN4CCN(c5ccc(Cl)cc5)CC4)ccc3C2=O)C(=O)N1 [GT-06765, 1-(5-((4-(4-chlorophenyl)piperazin-1-yl)methyl)-1-oxoisoindolin-2-yl)dihydropyrimidine-2,4(1H,3H)-dione] | 6.00 to 6.30 | B (80%< substrate protein remaining % ≤100%) | B (80%< substrate protein remaining % ≤100%) | B (80%< substrate protein remaining % ≤100%) | B (80%< substrate protein remaining % ≤100%) | A (0% ≤ substrate protein remaining % ≤80%) | B (80%< substrate protein remaining % ≤100%) |  | 
8 | O=C1CCN(N2Cc3cc(CN4CCN(c5ccccc5Br)CC4)ccc3C2=O)C(=O)N1 [GT-06766, 1-(5-((4-(2-bromophenyl)piperazin-1-yl)methyl)-1-oxoisoindolin-2-yl)dihydropyrimidine-2,4(1H,3H)-dione] | 6.00 to 6.30 | A (0% ≤ substrate protein remaining % ≤80%) | A (0% ≤ substrate protein remaining % ≤80%) | A (0% ≤ substrate protein remaining % ≤80%) | A (0% ≤ substrate protein remaining % ≤80%) | A (0% ≤ substrate protein remaining % ≤80%) | A (0% ≤ substrate protein remaining % ≤80%) |  | 
9 | O=C1CCN(N2Cc3cc(CN4CC=C(c5c[nH]c6ncccc56)CC4)ccc3C2=O)C(=O)N1 [GT-07577, 1-(5-((4-(1H-pyrrolo[2,3-b]pyridin-3-yl)-3,6-dihydropyridin-1 (2H)-yl)methyl)-1-oxoisoindolin-2-yl)dihydropyrimidine-2,4(1H,3H)-dione] |  | A (0% ≤ substrate protein remaining % ≤80%) | A (0% ≤ substrate protein remaining % ≤80%) | B (80%< substrate protein remaining % ≤100%) | A (0% ≤ substrate protein remaining % ≤80%) | A (0% ≤ substrate protein remaining % ≤80%) | A (0% ≤ substrate protein remaining % ≤80%) | 6.30 to 6.52 | 6.00 to 6.30
10 | O=C1CCN(N2Cc3cc(CN4CC=C(c5n[nH]c6cc(F)ccc56)CC4)ccc3C2=O)C(=O)N1 [GT-07578, 1-(5-((4-(6-fluoro-1H-indazol-3-yl)-3,6-dihydropyridin-1(2H)-yl)methyl)-1-oxoisoindolin-2-yl)dihydropyrimidine-2,4(1H,3H)-dione] |  | A (0% ≤ substrate protein remaining % ≤80%) | A (0% ≤ substrate protein remaining % ≤80%) | A (0% ≤ substrate protein remaining % ≤80%) | B (80%< substrate protein remaining % ≤100%) | B (80%< substrate protein remaining % ≤100%) | A (0% ≤ substrate protein remaining % ≤80%) | 7.00 to 7.30 | 7.00 to 7.30
11 | O=C1CCN(N2Cc3cc(CN4CC=C(c5cccc6c(F)cccc56)CC4)ccc3C2=O)C(=O)N1 [GT-07590, 1-(5-((4-(5-fluoronaphthalen-1-yl)-3,6-dihydropyridin-1(2H)-yl)methyl)-1-oxoisoindolin-2-yl)dihydropyrimidine-2,4(1H,3H)-dione] |  | A (0% ≤ substrate protein remaining % ≤80%) | A (0% ≤ substrate protein remaining % ≤80%) | A (0% ≤ substrate protein remaining % ≤80%) | A (0% ≤ substrate protein remaining % ≤80%) | B (80%< substrate protein remaining % ≤100%) | A (0% ≤ substrate protein remaining % ≤80%) | 7.30 to 8.00 | 7.00 to 7.30
